Experimental data: US8530669B2, “Ester compound and use thereof” (Sumitomo Chemical Company, Limited, priority 2010, dated 2013)

What was measured:
[1] = tested on: American cockroaches (Periplaneta Americana); experiment: Test Example 1: oil solution spray knock-down test on American cockroaches; format: in vivo; conditions: adult American cockroaches, 1.5 ml of 0.1% (w/v) oil solution sprayed, repeated twice
Experimental: (§1) Zero point one (0.1) part of the compound of the present inventions (1), (2) and (4) was dissolved in 10 parts of isopropyl alcohol and the solution was mixed with 89.9 parts of deodorized kerosene to prepare a 0.1% (w/v) oil solution.
(§2) Six adult American cockroaches (Periplaneta Americana, 3 males and 3 females) were released in a test container (diameter 12.5 cm, 10 cm high, the bottom face is made of 16 mesh metallic wire), the inner face on which butter was applied, and the container was set at the bottom of a test chamber (bottom face: 46 cm×46 cm, height: 70 cm). Each 1.5 ml of the oil solution of the compound of the present invention (1), (2) and (4) was sprayed using a spray gun at a pressure of 0.4 kg/cm^2 from 60 cm higher than the upper face of the container. Thirty seconds after the spraying, the container was pulled out from the chamber. After a prescribed time, the number of knocked-down cockroaches was counted and a knock-down ratio was determined (repeated twice). The knocked-down ratio was calculated by the following equation. Knocked-down ratio(%)=(Number of knocked-down cockroaches/Number of test cockroaches)×100
For comparison, the test was conducted in the same manner as the above, except for using 2,5-dioxo-3-(2-propynyl)imidazolidinylmethyl=(1R)-cis-3-((Z)-2-cyano-2-methoxyethenyl)-2,2-dimethylcyclopropane carboxylate (compound described in JP-A-60-16962, hereinafter referred to as the comparative compound (1)) represented by the following formula: […]

[2] = tested on: common mosquitoes (Culex pipens pallens); experiment: Test Example 2: oil solution spray knock-down test on common mosquitoes in glass chamber; format: in vivo; conditions: adult female Culex pipens pallens, 0.025% (w/v) oil solution sprayed into 70 cm cubic glass chamber, 1 minute after spraying
Experimental: Zero point zero two five (0.025) part of the compound of the present invention (1) and (4) was dissolved in 10 parts of isopropyl alcohol, and the solution was mixed with 89.975 parts of deodorized kerosene to prepare a 0.025% (w/v) oil solution.
(§3) Ten adult female common mosquitoes (Culex pipens pallens) were released in a cubic glass chamber having each side of 70 cm. The oil solution of the compound of the present invention (1) and (4) was sprayed into the chamber through a small window on the side of the chamber using a spraying gun at a pressure of 0.9 kg/cm^2. One minutes after spraying, the number of knocked-down mosquitoes was counted and a knock-down ratio was determined. A knocked-down ratio was calculated by the following equation. Knocked-down ratio(%)=(Number of knocked-down mosquitoes/Number of test mosquitoes)×100

[3] = tested on: houseflies (Musca domestica); experiment: Test Example 3: oil solution spray knock-down test on houseflies in glass chamber; format: in vivo; conditions: adult Musca domestica, 0.7 ml of 0.025% (w/v) oil solution sprayed into 70 cm cubic glass chamber
Experimental: Zero point zero two five (0.025) part of the compound of the present invention (1) and (4) was dissolved in 10 parts of isopropyl alcohol, and the solution was mixed with […] parts of deodorized kerosene to prepare a 0.025% (w/v) oil solution.
as §3, with “houseflies (Musca domestica)” for “female common mosquitoes (Culex pipens pallens)”, “cm, and 0.7 ml of the” for “cm. The”, “Five” for “One”, “flies” for “mosquitoes”, “flies/Number” for “mosquitoes/Number”, “flies)×100” for “mosquitoes)×100”

[4] = tested on: American cockroaches (Periplaneta Americana); experiment: Test Example 7: oil solution spray knock-down test on American cockroaches; format: in vivo; conditions: adult American cockroaches, 1.5 ml of 0.1% (w/v) oil solution sprayed, repeated twice
Experimental: as §1
as §2, with “Three minutes after spraying,” for “After a prescribed time,”

[5] = tested on: German cockroaches (Blattella germanica); experiment: Test Example 8: oil solution spray knock-down test on German cockroaches; format: in vivo; conditions: adult German cockroaches, 1.5 ml of 0.00625% (w/v) oil solution sprayed, repeated once
Experimental: Zero point zero zero six two five (0.00625) part of the compound of the present inventions (1), (2), (3), (4) and (5) was dissolved in 10 parts of isopropyl alcohol and the solution was mixed with 89.99375 parts of deodorized kerosene to prepare a 0.00625% (w/v) oil solution.
Ten adult German cockroaches (Blattella germanica, 5 males and 5 females) were released in a test container (diameter 8.75 cm, 7.5 cm high, the bottom face is made of 16 mesh metallic wire), the inner face on which butter was applied, and the container was set at the bottom of a test chamber (bottom face: 46 cm×46 cm, height: 70 cm).
Each 1.5 ml of the oil solution of the compound of the present invention (1), (2), (3), (4) and (5) was sprayed using a spray gun at a pressure of 0.4 kg/cm^2 from 60 cm higher than the upper face of the container. Thirty seconds after the spraying, the container was pulled out from the chamber. Two minutes after spraying, the number of knocked-down cockroaches was counted and a knock-down ratio was determined (repeated once). A knocked-down ratio was calculated by the following equation. Knocked-down ratio(%)=(Number of knocked-down cockroaches/Number of test cockroaches)×100 The results (2 minutes after spraying) are shown in Table 5.

Row | Compound | Knock-down ratio (%) 2 minutes after spraying [1] | Knock-down ratio (%) 1 minutes after spraying [2] | Knock-down ratio (%) 5 minutes after spraying [3] | Knock-down ratio (%) 3 minutes after spraying [4] | Knock-down ratio (%) 2 minutes after spraying [5] | melting point
1 | C#CCn1c(C)nn(COC(=O)[C@@H]2[C@@H](/C=C(\C#N)SCC)C2(C)C)c1=O [compound of the present invention (4), 3-methyl-5-oxo-4-(2-propynyl)-4,5-dihydro-[1,2,4]triazolylmethyl=(1R)-trans-3-[(1E)-2-cyano-2-(ethylthio)ethenyl]-2,2-dimethylcyclopropane carboxylate] | 100% | 100% | 80% | 100% | 100% | –
2 | C#CCn1c(C)nn(COC(=O)[C@@H]2[C@@H](C=C(C#N)SCC)C2(C)C)c1=O [compound of the present invention (3), 3-methyl-5-oxo-4-(2-propynyl)-4,5-dihydro-[1,2,4]triazolylmethyl=(1R)-trans-3-[(1EZ)-2-cyano-2-(ethylthio)ethenyl]-2,2-dimethylcyclopropane carboxylate] | – | – | – | – | 100% | –
3 | C#CCn1c(C)nn(COC(=O)[C@@H]2[C@@H](C=C(C#N)SCC)C2(C)C)c1=O (relative stereo) [compound of the present invention (5), 3-methyl-5-oxo-4-(2-propynyl)-4,5-dihydro-[1,2,4]triazolylmethyl=(1R)-trans-3-[(1EZ)-2-cyano-2-(ethylthio)ethenyl]-2,2-dimethylcyclopropane carboxylate] | – | – | – | – | 90% | –
4 | C#CCn1c(C)nn(COC(=O)[C@@H]2[C@@H](C=C(C#N)SC)C2(C)C)c1=O [compound of the present invention (1), 3-methyl-5-oxo-4-(2-propynyl)-4,5-dihydro-[1,2,4]triazolylmethyl=(1R)-trans-3-[(1EZ)-2-cyano-2-(methylthio)ethenyl]-2,2-dimethylcyclopropane carboxylate] | 100% | 95% | 80% | 100% | 100% | –
5 | C#CCn1c(C)nn(COC(=O)[C@@H]2[C@@H](C=C(C)C)C2(C)C)c1=O [comparative compound (2), 3-methyl-5-oxo-4-(2-propynyl)-4,5-dihydro-[1,2,4]triazolylmethyl=(1R)-trans-3-(2-methyl-1-propenyl)-2,2-dimethylcyclopropane carboxylate, reference compound] | 33% | – | – | – | – | –
6 | C#CCN1CC(=O)N(COC(=O)[C@@H]2[C@H](/C=C(/C#N)OC)C2(C)C)C1=O [comparative compound (1), 2,5-dioxo-3-(2-propynyl)imidazolidinylmethyl=(1R)-cis-3-((Z)-2-cyano-2-methoxyethenyl)-2,2-dimethylcyclopropane carboxylate, reference compound] | 42% | – | – | – | – | –
7 | C#CCn1c(C)nn(COC(=O)[C@@H]2[C@@H](/C=C(\C#N)SC)C2(C)C)c1=O [compound of the present invention (2), 3-methyl-5-oxo-4-(2-propynyl)-4,5-dihydro-[1,2,4]triazolylmethyl=(1R)-trans-3-[(1E)-2-cyano-2-(methylthio)ethenyl]-2,2-dimethylcyclopropane carboxylate] | 92% | – | – | 100% | 100% | 104 to 105 °C
